According to patent US10233426B2, “Method for inducing cardiac differentiation of pluripotent stem cell with low-molecular compounds” (KYOTO UNIVERSITY, priority 2014, dated 2019):

Test system: monkey ES cell line transfected with an αMHC promoter-driven GFP gene
Experiment: Chemical screening: GFP fluorometry for cardiac differentiation of monkey ES cells
Type: cell-based, cynomolgus monkey
Settings: GFP fluorometry day 9
Experimental: Pluripotent stem cells were cultured in culture media to which the test compounds were added in different concentrations (0.3 μM, 1 μM, 3 μM and 10 μM) in early phase and late phase of differentiation of the cells. Cells from the culture were subjected to GFP fluorometry in accordance with the cardiac differentiation protocol shown in FIG. 1a. Besides the test compounds, 10 μM KY02111 was included in the culture media for the late phase differentiation. The intensity of GFP fluorescence determined in the cells from the control culture, which was cultured with no test compound other than KY02111, was assigned to one.
The scheme of chemical screening is illustrated in FIG. 1a. Compounds were screened for the ability of increasing GFP fluorescence compared with the control (KY02111 alone) using a monkey ES cell line transfected with an αMHC promoter-driven GFP gene (Minami et al., Cell Reports 2, 1448-1460, 2012, which is incorporated herein by reference). The ES cell line was derived from a monkey ES cell line (cynomolgus monkey CMK6.4) by transfecting the cells with a vector which expresses green fluorescent protein (GFP) under control by a promoter of α-MHC gene (a marker of cardiac differentiation). The cells were plated at 4.0×10^5 cells per well in 6 well plates (Asahi Glass/5816-006: Ezview culture plates) and cultured for nine days in an IMDM-based medium for cardiac differentiation (200 ml IMDM medium (Sigma 13390), with 50 ml calf serum (GIBCO 10099-141), 2.5 ml MEM non-essential amino acid solution (Sigma M7145), 2.5 ml penicillin-streptomycin ([…]), 2.5 ml 200 mM L-glutamine, 2 ul 2-mercaptoethanol (Sigma M7522), and 255 ul 5N NaOH). Each test compound was added to the medium at different concentrations in the early phase (day 0 to day 3) and the late phase (day 4 to day 7) of cardiac differentiation. Cells obtained from the culture on day 9 were subjected to GFP fluorometry with a Metamorph imaging system. […]

[1] = test compound 0.3 μM in Early phase (day 0 to day 3), 10 μM KY02111 in late phase
[2] = test compound 0.3 μM in Late phase (day 4 to day 7) with 10 μM KY02111
[3] = test compound 1 μM in Early phase (day 0 to day 3), 10 μM KY02111 in late phase
[4] = test compound 1 μM in Late phase (day 4 to day 7) with 10 μM KY02111
[5] = test compound 3 μM in Early phase (day 0 to day 3), 10 μM KY02111 in late phase
[6] = test compound 3 μM in Late phase (day 4 to day 7) with 10 μM KY02111
[7] = test compound 10 μM in Early phase (day 0 to day 3), 10 μM KY02111 in late phase
[8] = test compound 10 μM in Late phase (day 4 to day 7) with 10 μM KY02111

Structure (SMILES)	intensity of GFP fluorescence relative to control culture (KY02111 only, assigned to one) [1]	intensity of GFP fluorescence relative to control culture (KY02111 only, assigned to one) [2]	intensity of GFP fluorescence relative to control culture (KY02111 only, assigned to one) [3]	intensity of GFP fluorescence relative to control culture (KY02111 only, assigned to one) [4]	intensity of GFP fluorescence relative to control culture (KY02111 only, assigned to one) [5]	intensity of GFP fluorescence relative to control culture (KY02111 only, assigned to one) [6]	intensity of GFP fluorescence relative to control culture (KY02111 only, assigned to one) [7]	intensity of GFP fluorescence relative to control culture (KY02111 only, assigned to one) [8]
COc1cc([C@@H]2c3cc4c(cc3[C@H](O)[C@H]3COC(=O)[C@@H]23)OCO4)cc(OC)c1OC [PPP]	0.2	0.39	0	0.2	0	0	0	0
N#C/C(=C/c1ccc(O)c(O)c1)C(=O)NCc1ccccc1 [AG490]	1.5	0.92	0.59	1	0.79	1.1	0.72	1.33
NC(=O)c1ccc(-c2nc(-c3ccccn3)c(-c3ccc4c(c3)OCO4)[nH]2)cc1 [5B431542]	0.61	1.2	0.1	1.52	0	1.44	0	1.58
CCN(CC)CCCCNc1ncc2cc(-c3cc(OC)cc(OC)c3)c(NC(=O)NC(C)(C)C)nc2n1 [PD173074]	0.02	0.23	0	0.08	0	0	0	0
O=C1NC(=O)/C(=C\c2ccc3nccnc3c2)S1 [AS605240]	0.65	1.31	0.84	0.9	0.32	1.22	0	0.55
